The source of these data is ChEMBL document CHEMBL5344440, “Fragment Merging, Growing, and Linking Identify New Trypanothione Reductase Inhibitors for Leishmaniasis” (J Med Chem, 2024).

Data set [1] has as its system Leishmania infantum. The experiment in a line: Antileishmanial activity against axenic amastigote form of Leishmania infantum MHOM/TN/80/IPT1 assessed as parasite growth inhibition measured after 72 hrs by MTT assay. In kind it is functional, organism-based. Conditions: MHOM/TN/80/IPT1, 72 h. A general note: Tetrazolium dyes change colour on reduction, which living cells bring about.

In data set [2] the target is Trypanothione reductase (Leishmania infantum) (UniProt A4HSF7). The experiment in a line: Inhibition of Leishmania infantum Trypanothione reductase expressed in Escherichia coli BL21 (DE3) assessed as enzyme residual activity using trypanothione as substrate at 100 uM preincubated for 3 mins followed NADPH addition by spectrophotometric analysis.
Sequence of Trypanothione reductase (Leishmania infantum) (A4HSF7 as listed by the source): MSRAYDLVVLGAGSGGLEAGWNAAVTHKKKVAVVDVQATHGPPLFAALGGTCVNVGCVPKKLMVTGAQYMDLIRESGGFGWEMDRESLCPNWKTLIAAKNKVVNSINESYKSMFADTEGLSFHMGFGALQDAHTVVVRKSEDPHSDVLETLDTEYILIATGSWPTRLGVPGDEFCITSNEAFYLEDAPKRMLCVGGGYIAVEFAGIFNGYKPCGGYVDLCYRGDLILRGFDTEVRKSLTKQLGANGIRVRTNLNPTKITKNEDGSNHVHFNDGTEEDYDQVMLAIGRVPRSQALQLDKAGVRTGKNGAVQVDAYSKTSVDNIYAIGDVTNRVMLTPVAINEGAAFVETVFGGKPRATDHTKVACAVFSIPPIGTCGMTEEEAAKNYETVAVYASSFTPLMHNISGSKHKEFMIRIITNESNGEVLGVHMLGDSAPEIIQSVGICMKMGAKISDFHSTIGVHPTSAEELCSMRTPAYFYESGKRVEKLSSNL
Data set [3] in a line: Selectivity index, ratio of CC50 for cytotoxicity against human THP-1 cells to EC50 for antileishmanial activity against axenic amastigote form of Leishmania infantum MHOM/TN/80/IPT1. In kind it is toxicity, cell-based. To be noted: read-out: Ratio CC50/EC50.
Data set [4] is described as follows: (§1) Cytotoxicity against PMA-differentiated human THP-1 cells assessed as reduction in cell viability measured after 72 hrs by MTT assay. The format is toxicity, cell-based. Conditions: PMA-differentiated THP-1 cells.
The target of data set [5] is Trypanothione reductase (Leishmania infantum) (UniProt A4HSF7). As to the kind of experiment: Inhibition of Leishmania infantum Trypanothione reductase expressed in Escherichia coli BL21 (DE3) assessed as enzyme residual activity using trypanothione as substrate at 10 uM preincubated for 3 mins followed NADPH addition by spectrophotometric analysis.
The nature of data set [6]: (§2) Cytotoxicity against BALB/c mouse peritoneal macrophages assessed as reduction in cell viability measured after 72 hrs by MTT assay. The format is toxicity, cell-based, Peritoneal macrophage. To be noted: BALB/c, peritoneal macrophages.
The test system of another data set is THP-1. The data set is described as §1. In kind it is toxicity, cell-based. To be noted: thp-1, 72 h.
The subject of data set [7] is glutathione reductase versus Leishmania infantum trypanothione reductase. As to the kind of experiment: Selectivity index, ratio of IC50 for inhibition of human glutathione reductase expressed in Escherichia coli cells to IC50 for inhibition of Leishmania infantum Trypanothione reductase expressed in Escherichia coli BL21 (DE3). The format is toxicity. Conditions: read-out: Ratio IC50.

In a further data set the test system is Peritoneal macrophage. The description is as §2. The format is toxicity, cell-based. Conditions: peritoneal macrophage, 72 h.
In data set [8] the test system is Leishmania infantum. As to the kind of experiment: Antileishmanial activity against amastigote form of Leishmania infantum infected in BALB/c mouse macrophages assessed as reduction in parasite infection at 12.5 uM measured after 72 hrs by Giemsa staining based optical microscopy relative to control. In kind it is functional.

Consider `C[C@@H]1[C@H](O)[C@@H](C)/C=C/C=C/C=C/C=C/C=C/C=C/C=C/[C@H](O[C@@H]2O[C@H](C)[C@@H](O)[C@H](N)[C@@H]2O)C[C@@H]2O[C@](O)(C[C@@H](O)C[C@@H](O)[C@H](O)CC[C@@H](O)C[C@@H](O)CC(=O)O[C@H]1C)C[C@H](O)[C@H]2C(=O)O` [AMPHOTERICIN B], for which the EC50 with Leishmania infantum [1] is 0.5 µM.

On to `O=C(NCCc1ccc(F)cc1)c1ccco1`, for which the Activity in [2] was found to be 85.3%.

On to `O=C(NCCc1ccc(F)cc1)c1ccc(CN(C(=O)N2CCN(CCCN3c4ccccc4Sc4ccc(C(F)(F)F)cc43)CC2)c2ccc(F)cc2)o1`, for which the selectivity ratio in data set [3] was 1.8. Also, the 50% cytotoxic concentration (CC50) at 72 h worked out at 23.4 µM in data set [4] and 30.7 µM in data set [6]. Besides, the Activity in data set [5] was 70.8%. Moreover, the EC50 in the data set with Leishmania infantum [1] was 13 µM.

Consider `O=C(O)c1ccc(N(Cc2ccc(C(=O)NCCc3ccc(F)cc3)o2)C(=O)N2CCN(CCCc3ccccc3)CC2)cc1`, for which, in data set [3], the selectivity ratio was greater than 2.

Turning to `CC(=O)N1CCN(CCCc2ccccc2)CC1`, in [2], the Activity was found to be 77.7%.

Take `O=C(NCCc1ccc(F)cc1)c1ccc(CN(C(=O)N2CCN(CCCN3c4ccccc4Sc4ccc(Cl)cc43)CC2)c2ccc(F)cc2)o1`: the values for the selectivity ratio in data set [3] and in data set [7] were 0.5 and 0.4, respectively. Moreover, the results for the CC50 in the data set with THP-1 and in the data set on Peritoneal macrophage were 6.5 µM and 9.1 µM, respectively.

`O=C(NCCc1ccc(F)cc1)c1ccc(CNC(=O)N2CC[N+](CCCc3ccccc3)(Cc3ccc(Cl)c(Cl)c3)CC2)o1`: the inhibition at 12.5 µM in the data set with Leishmania infantum [8] worked out at 40%.

Turning to `O=C(NCCc1ccccc1)c1ccc(CN(C(=O)N2CCN(Cc3ccc(Cl)c(Cl)c3)CC2)c2ccc(F)cc2)o1`, the selectivity ratio in data set [3] turned out to be 1.1. Moreover, the CC50 at 72 h in data set [4] was 11.7 µM; in data set [6] it was 14.4 µM. Further, in data set [5], the Activity is 94.1%. The EC50 with Leishmania infantum [1] was found to be 10.3 µM.

In general, EC50 refers to the concentration needed to bring the measured effect to its halfway point. As a reminder, the CC50 is the concentration at which the toxic effect on the cells reaches its halfway point. Broadly, the inhibition is the percentage by which the read-out fell short of the control.
